In patent US20140031278A1, “Novel Glucagon Analogues” (NOVO NORDISK A/S, priority 2011, published 2014) one finds EC50 data, which are given here for three molecules.

*1 amine or outer side, *2 acyl side, *3 side chain or, on linkers, in order; H or OH if unused. Where a SMILES comes first, the peptide text is derived from it. Side-chain parts run from the residue outwards. γGlu = O=C(O)[C@H](CCC(=O)[*:2])N[*:1]

In this experiment the target is T1, glucagon receptor (Homo sapiens, UniProt P47871).
T1 construct: expressed in transfected cells
Put plainly: Assay (I) Glucagon activity (cAMP biosensor, FLIPR). The format is cell-based. Conditions: HEK-293 cells with cloned glucagon receptor and cAMP biosensor; end point after 6 minutes. A digest of the protocol:
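HEK-293 cells expressing glucagon receptor with membrane cAMP biosensor (ACTOne), calcium-dye loaded with probenecid and a PDE inhibitor.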

A word on the EC50: it is the concentration at which the effect is half-maximal.

T1 sequence (P47871 26-477): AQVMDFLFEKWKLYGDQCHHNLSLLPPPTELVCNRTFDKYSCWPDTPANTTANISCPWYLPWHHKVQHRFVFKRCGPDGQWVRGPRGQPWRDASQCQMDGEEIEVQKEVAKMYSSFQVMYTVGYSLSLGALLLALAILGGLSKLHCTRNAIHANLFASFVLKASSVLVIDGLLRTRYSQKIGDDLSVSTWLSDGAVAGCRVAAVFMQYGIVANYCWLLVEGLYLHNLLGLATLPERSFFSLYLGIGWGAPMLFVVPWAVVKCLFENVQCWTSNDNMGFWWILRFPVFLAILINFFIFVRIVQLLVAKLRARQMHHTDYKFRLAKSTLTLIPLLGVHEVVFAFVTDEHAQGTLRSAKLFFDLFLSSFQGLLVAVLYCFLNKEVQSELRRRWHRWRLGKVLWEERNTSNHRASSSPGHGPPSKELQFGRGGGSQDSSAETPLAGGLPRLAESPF

For `CC(=O)N[C@@H](CCC(=O)N[C@@H](CCC(=O)N[C@@H](CCC(=O)N[C@@H](CCC(=O)NCCCC[C@H](NC(=O)[C@@H](NC(=O)[C@H](Cc1ccccc1)NC(=O)[C@H](CC(=O)O)NC(=O)[C@H](CCC(N)=O)NC(=O)[C@H](C)NC(=O)[C@H](CCCNC(=N)N)NC(=O)[C@H](CCCNC(=N)N)NC(=O)[C@H](Cc1ccccc1)NC(=O)[C@H](CC(=O)O)NC(=O)[C@H](CC(C)C)NC(=O)[C@H](Cc1ccc(O)cc1)NC(=O)[C@H](CCCCN)NC(=O)[C@H](CO)NC(=O)[C@H](Cc1ccc(O)cc1)NC(=O)[C@H](CC(=O)O)NC(=O)[C@H](CO)NC(=O)[C@@H](NC(=O)[C@H](Cc1ccccc1)NC(=O)[C@@H](NC(=O)CNC(=O)[C@H](CCC(N)=O)NC(=O)[C@H](CO)NC(=O)[C@@H](N)Cc1c[nH]cn1)[C@@H](C)O)[C@@H](C)O)C(C)C)C(=O)N[C@@H](Cc1c[nH]c2ccccc12)C(=O)N[C@@H](CC(C)C)C(=O)N[C@@H](CC(C)C)C(=O)N[C@@H](CO)C(=O)N[C@H](C(=O)O)[C@@H](C)O)C(=O)O)C(=O)O)C(=O)O)C(=O)O` [Example 35], the midpoint of the response, the EC50, lay at 0.0028 nM. Molecule `CC[C@H](C)[C@H](NC(=O)[C@H](CC(=O)O)NC(=O)[C@H](CC(C)C)NC(=O)[C@H](Cc1ccc(O)cc1)NC(=O)[C@H](CCCNC(=N)N)NC(=O)[C@H](CO)NC(=O)[C@H](Cc1ccc(O)cc1)NC(=O)[C@H](CC(=O)O)NC(=O)[C@H](CO)NC(=O)[C@@H](NC(=O)[C@H](Cc1ccccc1)NC(=O)[C@@H](NC(=O)CNC(=O)[C@H](Cc1c[nH]cn1)NC(=O)[C@H](CO)NC(=O)[C@@H](N)Cc1c[nH]cn1)[C@@H](C)O)[C@@H](C)O)C(=O)N[C@@H](CCCNC(=N)N)C(=O)N[C@@H](CCCNC(=N)N)C(=O)N[C@@H](C)C(=O)N[C@@H](C)C(=O)N[C@@H](CC(=O)O)C(=O)N[C@@H](Cc1ccccc1)C(=O)N[C@H](C(=O)N[C@@H](CCCCNC(=O)CC[C@H](NC(=O)CC[C@H](NC(=O)CC[C@H](NC(=O)CC[C@H](N)C(=O)O)C(=O)O)C(=O)O)C(=O)O)C(=O)N[C@@H](Cc1c[nH]c2ccccc12)C(=O)N[C@@H](CC(C)C)C(=O)N[C@@H](CC(C)C)C(=O)N[C@@H](CO)C(=O)N[C@H](C(=O)O)[C@@H](C)O)C(C)C` [Example 8, N^ε24-[(4S)-4-[[(4S)-4-[[(4S)-4-[[(4S)-4-amino-4-carboxybutanoyl]amino]-4-carboxybutanoyl]amino]-4-carboxybutanoyl]amino]-4-carboxybutanoyl]-[His3,Arg12,Ile16,Ala20,Lys24,Leu27,Ser28]-Glucagon] (H-HSHGTFTSDYSRYLDIRRAADFVK([γGlu-γGlu-γGlu-γGlu])WLLST-OH) had an EC50 of 0.0269 nM. As for `CC[C@H](C)[C@H](NC(=O)[C@H](CC(=O)O)NC(=O)[C@H](CC(C)C)NC(=O)[C@H](Cc1ccc(O)cc1)NC(=O)[C@H](CCCCN)NC(=O)[C@H](CO)NC(=O)[C@H](Cc1ccc(O)cc1)NC(=O)[C@H](CC(=O)O)NC(=O)[C@H](CO)NC(=O)[C@@H](NC(=O)[C@H](Cc1ccccc1)NC(=O)[C@@H](NC(=O)CNC(=O)[C@H](Cc1c[nH]cn1)NC(=O)[C@H](CO)NC(=O)[C@@H](N)Cc1c[nH]cn1)[C@@H](C)O)[C@@H](C)O)C(=O)N[C@@H](CCCNC(=N)N)C(=O)N[C@@H](CCCNC(=N)N)C(=O)N[C@@H](C)C(=O)N[C@@H](C)C(=O)N[C@@H](CC(=O)O)C(=O)N[C@@H](Cc1ccccc1)C(=O)N[C@H](C(=O)N[C@@H](CCCCNC(=O)CC[C@H](NC(=O)CC[C@H](NC(=O)CC[C@H](NC(=O)CC[C@H](NC(C)=O)C(=O)O)C(=O)O)C(=O)O)C(=O)O)C(=O)N[C@@H](Cc1c[nH]c2ccccc12)C(=O)N[C@@H](CC(C)C)C(=O)N[C@@H](CC(C)C)C(=O)N[C@@H](CO)C(=O)N[C@H](C(=O)O)[C@@H](C)O)C(C)C` [Example 11] (H-HSHGTFTSDYSKYLDIRRAADFVK([γGlu-γGlu-γGlu-γGlu-Ac])WLLST-OH), the EC50 came to 0.0124 nM.
